What all share (format): cell-based
In one assay the test system is Wnt signaling. Put plainly: Wnt signaling reporter assay (Super8XTOPFlash luciferase) in LRP6-expressing HEK293 cells. As to conditions: Homo sapiens, 24 h treatment, luciferase normalized to β-galactosidase, read-out: IC50 (effects on Wnt signaling). The procedure: HEK293 cells were plated into 24-well plates. After overnight culture, the cells were transiently transfected with 0.06 μg of the Super8XTOPFlash luciferase construct, 0.06 μg of β-galactosidase-expressing vector, and 0.06 μg of pCS-Myc-hLRP6 or control vector. After 24 h incubation, cells were treated with each individual compound in triplicate for 24 h. Cells were then lysed, and the luciferase and β-galactosidase activities were determined by the luciferase assay system (Promega) and β-galactosidase assay system (Promega), respectively. The luciferase activity was normalized to the β-galactosidase activity.
Table 2 below illustrates the effects of the disclosed compounds on Wnt signaling in LRP6-expressing HEK293 cells.
In general terms: In a reporter assay the amount or activity of a reporter protein is the signal.

A further assay relates to PANC-1. As to the kind of experiment: In vitro cell viability assay (Cell Titer Glo), pancreatic cancer PANC-1. As to conditions: Homo sapiens, 72 h. How it is done:
(§1) Breast cancer SUM159 was obtained from Asterand and grown according to supplier's recommendation. All other cell lines were obtained from ATCC and cultured in standard cell culture conditions with complete cell culture medium containing 10% FBS.
(§2) Cancer cells were seeded into optically clear tissue culture-treated black 96-well plates (for adherent cells) or low-attachment 96-well plates (for cancer stem cells) at 2,000-5000 cells/50 μL of media per well. The cells were treated with Wnt inhibitors at 0.1 to 10 μM for 72 h. Cell viability was measured by the Cell Titer Glo Assay from Promega.
Background: ATP-based viability assays read luminescence as a measure of living cells.

Another assay relates to Suit-2. Put plainly: In vitro cell viability assay (Cell Titer Glo), pancreatic cancer Suit-2. As to conditions: 72 h. The procedure:
as §1, §2

The test system of the next assay is S2VP10. Put plainly: In vitro cell viability assay (Cell Titer Glo), pancreatic cancer S2VP10. As to conditions: 72 h. How it is done: as §1, §2
The next assay deals with L3.6pl. As to the kind of experiment: In vitro cell viability assay (Cell Titer Glo), pancreatic cancer L3.6pl. To be noted: Homo sapiens, CSC enriching serum free medium, non-adherent plates, 72 h, read-out: Cell viability (IC50) L3.6pl CSC. How it is done: as §1, §2
The next assay concerns HCT116. Put plainly: In vitro cell viability assay (Cell Titer Glo), colorectal cancer HCT116. As to conditions: Homo sapiens, HCT-116, 72 h. How it is done:
as §1, §2
(§3) Table 4 below illustrates the effects of the disclosed compounds on cell viability of colorectal cancer cell lines.

Another assay relates to HT-29. Put plainly: In vitro cell viability assay (Cell Titer Glo), colorectal cancer HT-29. As to conditions: Homo sapiens, 72 h. The procedure: as §1, §2, §3
The subject of another assay is 2LMP. Put plainly: In vitro cell viability assay (Cell Titer Glo), breast cancer 2LMP. To be noted: 72 h. The procedure: as §1, §2
(§4) Table 5 below illustrates the effects of the disclosed compounds on cell viability of breast cancer cell lines.

The subject of the next assay is HCC1143. As to the kind of experiment: In vitro cell viability assay (Cell Titer Glo), breast cancer HCC1143. As to conditions: Homo sapiens, 72 h. How it is done:
as §1, §2, §4

The subject of the next assay is MDA-MB-468. Put plainly: In vitro cell viability assay (Cell Titer Glo), breast cancer MDA-MB-468. To be noted: Homo sapiens, 72 h. How it is done:
as §1, §2, §4

A further assay has as its system SUM159. As to the kind of experiment: In vitro cell viability assay (Cell Titer Glo), breast cancer SUM159. To be noted: 72 h. The procedure: as §1, §2, §4

These results are taken from patent US20170210741A1, “Benzimidazole Compounds, Use As Inhibitors of WNT Signaling Pathway in Cancers, and Methods for Preparation Thereof” (Southern Research Institute, priority 2016, published 2017).

Read-outs that look alike come from different tables or passages of the source.

`FC(F)(F)Oc1ccc(-c2nc3cc(Cl)c(Cl)cc3[nH]2)cc1` [Compound 6, 5,6-Dichloro-2-(4-(trifluoromethoxy)phenyl)-1H-benzo[d]imidazole]: the IC50 in the assay on Wnt signaling came out at 190 nM; with PANC-1 (PANC-1, adherent, complete medium 10% FBS, read-out: Cell viability (IC50) PANC-1 Adherent), 3440 nM; in the assay with PANC-1 (PANC-1, cancer stem cell (CSC) enriching serum free medium, non-adherent plates, read-out: Cell viability (IC50) PANC-1 CSC), 570 nM; in the assay on Suit-2 (Suit-2, CSC enriching serum free medium, non-adherent plates, read-out: Cell viability (IC50) Suit-2 CSC), 560 nM; with Suit-2 (Suit-2, adherent, complete medium 10% FBS, read-out: Cell viability (IC50) Suit-2 Adherent), 2120 nM; in the assay with S2VP10 (S2VP10, CSC enriching serum free medium, non-adherent plates, read-out: Cell viability (IC50) S2VP10 CSC), 590 nM. In addition, the IC50 in the assay with S2VP10 (S2VP10, adherent, complete medium 10% FBS, read-out: Cell viability (IC50) S2VP10 Adherent) is 2570 nM; in the assay with L3.6pl it was 930 nM; in the assay on HCT116 (HCT116, CSC conditions, read-out: Cell viability (IC50) HCT116 CSC) it was 1610 nM; in the assay with HCT116 (HCT116, adherent, read-out: Cell viability (IC50) HCT116 Adherent), 3840 nM; in the assay with HT-29 (HT-29, CSC conditions, read-out: Cell viability (IC50) HT-29 CSC) it was 860 nM; in the assay with HT-29 (HT-29, adherent, read-out: Cell viability (IC50) HT-29 Adherent) it was 4380 nM. Moreover, the concentration for half-maximal inhibition (IC50) in the assay with 2LMP (CSC conditions, read-out: Cell viability (IC50) 2LMP CSC) is 2900 nM; with 2LMP (adherent, read-out: Cell viability (IC50) 2LMP Adherent) it was 3840 nM; in the assay with HCC1143 (HCC1143, CSC conditions, read-out: Cell viability (IC50) HCC1143 CSC), 1300 nM; in the assay with HCC1143 (HCC1143, adherent, read-out: Cell viability (IC50) HCC1143 Adherent) it was 3180 nM; in the assay with MDA-MB-468 (MDA-MB-468, CSC conditions, read-out: Cell viability (IC50) MDA-MB-468 CSC), 330 nM; in the assay with MDA-MB-468 (MDA-MB-468, adherent, read-out: Cell viability (IC50) MDA-MB-468 Adherent) it was 3830 nM. Moreover, the half-inhibitory concentration (IC50) with SUM159 (SUM159, CSC conditions, read-out: Cell viability (IC50) SUM159 CSC) was 1170 nM; in the assay with SUM159 (SUM159, adherent, read-out: Cell viability (IC50) SUM159 Adherent) it was 1670 nM.

As a reminder, the IC50 is the concentration that gives 50% inhibition.
